Experimental data: patent US10933051B2, “Carbapenem compounds and compositions for the treatment of bacterial infections” (FOB Synthesis, Inc., priority 2017, dated 2021)

How the values were obtained:
Format in all cases: cell-based
Set-up in all cases: unit not given here
A. baumannii FSAb-065 = assay: Antimicrobial Susceptibility Test (CLSI), Test Example 2; details: Table 4; strain produces OXA-2, VIM-2
Outline: (§1)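 Susceptibility is determined per CLSI. Strains are spotted at 10^4CFU/spot onto Mueller Hinton-II agar, and broth dilution is done in Mueller Hinton-II broth, with ATCC reference strains as controls.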

[1] = system: K. pneumoniae ATCC BAA-1904; assay: as above; details: Table 4; strain produces KPC-3
Outline: as §1

E. coli FSEco-054 = assay: as above; details: Table 4; strain produces ESBL
Outline: as §1

A. baumannii FSAb-056 = assay: as above; details: Table 4; strain produces OXA-23, OXA-51
Outline: as §1

P. aeruginosa FSPa-121 = assay: as above; details: Table 4; strain produces OXA-17
Outline: as §1

A. baumannii FSAb-029 = assay: as above; details: Table 4; strain produces OXA-2, IMP-1
Outline: as §1

A. baumannii FSAb-039 = assay: as above; details: Table 4; strain produces OXA-51
Outline: as §1

E. coli ATCC10536 = assay: MIC by CLSI agar/broth dilution, Test Example 1; details: Table 2
Procedure: (§2) The MIC (minimum inhibitory concentration) was determined by the CLSI (Clinical and Laboratory Standards Institute) methods. The agar dilution method for determining antimicrobial susceptibility was carried out using Mueller Hinton-II agar and the amount of inoculation was 10^4 CFU/spot. Broth dilution tests were performed using Mueller Hinton-II broth. All assays were run with the indicated control strains, available from the ATCC (American Type Culture Collection, Rockville, Md.).

K. pneumoniae ATCC10031 = assay: MIC by CLSI agar/broth dilution, Test Example 1; details: Table 2
Procedure: as §2

A. baumannii KABA 01-33 = assay: MIC by CLSI agar/broth dilution, Test Example 1; details: Table 2; strain produces OXA-2, VIM-2
Procedure: as §2

P. aeruginosa ATCC27853 = assay: MIC by CLSI agar/broth dilution, Test Example 1; details: Table 2
Procedure: as §2

A. baumannii 4010 = assay: MIC by CLSI agar/broth dilution, Test Example 1; details: Table 2; strain produces OXA-51
Procedure: as §2

Row | SMILES | antimicrobial susceptibility, A. baumannii FSAb-065 (A. baumannii FSAb-065) | antimicrobial susceptibility, K. pneumoniae BAA-1904 [1] | antimicrobial susceptibility, E. coil FSEco-054 (E. coli FSEco-054) | antimicrobial susceptibility, A. baumannii FSAb-056 (A. baumannii FSAb-056) | antimicrobial susceptibility, P. aeruginosa FSPa-121 (P. aeruginosa FSPa-121) | antimicrobial susceptibility, A. baumannii FSAb-029 (A. baumannii FSAb-029) | antimicrobial susceptibility, A. baumannii FSAb-039 (A. baumannii FSAb-039) | MIC (minimum inhibitory concentration), E. coil ATCC10536 (E. coli ATCC10536) | MIC (minimum inhibitory concentration), K. pneumoniae ATCC10031 (K. pneumoniae ATCC10031) | MIC (minimum inhibitory concentration), A. baumannii KABA 01-33 (A. baumannii KABA 01-33) | MIC (minimum inhibitory concentration), P. aeruginosa ATCC27853 (P. aeruginosa ATCC27853) | MIC (minimum inhibitory concentration), A. baumannii 4010 (A. baumannii 4010)
1 | C[C@@H](O)[C@H]1C(=O)N2C(C(=O)O)=C(CN(C)CC(=O)NCCNC(=O)c3ccc(O)c(O)c3Cl)[C@H](C)[C@H]12 [Compound 19] | 8 | 8 | 8 | 8 | 4 | 8 | 8 | 0.5 | 0.063 | 1 | 4 | 4
2 | C[C@@H](O)[C@H]1C(=O)N2C(C(=O)O)=C(CN(C)CC(=O)NCc3cc(=O)c(O)cn3O)[C@H](C)[C@H]12 [Compound 26] | 4 | 32 | 4 | 4 | 4 | 16 | 16 | 0.5 | 0.13 | 2 | 8 | 8
